Data on 16 compounds can be found in patent US8053413B2, “Methods for treating sleep disorders by cholecystokinin (CCK) receptor B antagonists” (The Board of Trustees of the University of Illinois, priority 2005, dated 2011).

The subject of data set [1] is sleep apnea (OSAS, central apnea). The note with it: cited from earlier work; for effect in individuals with obstructive sleep apnea (OSAS) / effect in individuals with central apnea: patients; for effect in individuals with central apnea: primarily central apneas.
The test system of data set [2] is spontaneous sleep apnea in the rat. The data set can be described thus: Spontaneous sleep apnea in the rat: plethysmograph, EEG and EMG recording after i.p. injection. Format: in vivo, Sprague-Dawley rats. The note with it: for SP apnea index, % of placebo value: spontaneous (SP) apneas, p<0.03; for efficacy against sleep apnea (rate of apneas per hour of NREM and REM sleep): 6 hours polygraphic recording, i.p. How it is done: Adult, male Sprague-Dawley rats (Sasco-King, Wilmington, Mass.), usually 8 per test group with an average weight of 300 grams, are maintained on a 12-hour light/12-hour dark cycle for one week. The animals are housed in individual cages and given ad libitum access to food and water. Following the one week of acclimatization, animals are subjected to the following surgical procedures.
Acclimatized animals are anesthetized using a mixture of ketamine (80 mg/kg) and xylazine (5 mg/kg) at a volume of 1 ml/kg body weight for the implantation of cortical electrodes for electroencephalogram (EEG) recording and neck muscle electrodes for electromyogram (EMG) recording. The surface of the skull is exposed surgically and cleaned with a 20% solution of hydrogen peroxide followed by a solution of 95% isopropyl alcohol. A dental preparation of sodium fluoride (FLURA-GEL; Saslow Dental, Mt. Prospect, Ill.) is subsequently applied to harden the skull above the parietal cortex and allowed to remain in place for 5 minutes. The fluoride mixture is then removed from the skull above the parietal cortex. The EEG electrodes consisting of four stainless steel machine screws, having leads attached thereto, are threaded into the skull to rest on the dura over the parietal cortex. A thin layer of JUSTI resin cement (Saslow Dental, Mt. Prospect, Ill.) is applied to cover the screw heads (of screws implanted in the skull) and surrounding skull to further promote the adhesion of the implant. EMG electrodes consisting of two ball-shaped wires are inserted into the bilateral neck musculature. All leads (i.e., EEG and EMG leads) are soldered to a miniature connector (39F1401; Newark Electronics, Schaumburg, Ill.). The entire assembly is subsequently fixed to the skull with dental cement.
Physiological parameters from each animal prepared as described herein are recorded on two to five occasions in random order, with recordings for an individual animal separated by at least 3 days. Fifteen minutes prior to each recording an animal receives a systemic injection (1 mL/kg intraperitoneal bolus) of either saline (control) or an active dose of a drug treatment.
Respiration is recorded by placing each animal, unrestrained, inside a single chamber plethysmograph (PLYUNIR/U; Buxco Electronics, Sharon, Conn.; dimension 6 inches×10 inches×6 inches) ventilated with a bias flow of fresh room air at a rate of 2 Liters/minute. A cable plugged onto the animal's connector and passed through a sealed port is used to collect the bioelectrical activity from the head implant.
Sleep and waking states are assessed using conventional software (Benington, et al. (1994) Sleep 17:28-36) to analyze the biparietal EEG and nuchal EMG signals on 10-second epochs. The software discriminates wakefulness (W) as a high frequency low amplitude EEG with a concomitant high EMG tone, NREM sleep by increased spindle and […] activity together with decreased EMG tone, and REM sleep by a […] activity and an absence of EMG tone. Sleep efficiency is measured as the percentage of total recorded epochs staged as NREM or REM sleep.
An accepted physiological animal model of spontaneous sleep apnea in the rat (see Radulovacki & Carley (2002) In: Sleep-Related Breathing Disorder: Experimental Models and Therapeutic Potential (Carley & Radulovacki, eds.) Marcel Dekker: New York, pp. 3-16) is used to assess the effects of test drugs. More specifically, sleep apneas, defined as cessation of respiratory effort for at least 2.5 seconds, are scored for each recording session and associated with the stage of sleep in which they occur (i.e., NREM or REM sleep). The duration requirement of 2.5 seconds represents at least two “missed” breaths, which is therefore analogous to a 10 second apnea duration requirement in humans, which also reflects two to three missed breaths. […]

Data set [3] relates to CCK-induced depolarization of nodose ganglion neurons. To be noted: isolated nodose ganglion cells; cited from earlier work.
In data set [4] the test system is central apneas. To be noted: rats with frequent central apneas during all sleep stages; cited from earlier work.
For data set [5], the system named is sleep apnea. To be noted: cited from earlier work.
The mark [6] stands for this setting: individuals with obstructive sleep apnea.

Turning to `O=C1CC2(CCCC2)CC(=O)N1CCCCN1CCN(c2ncccn2)CC1` [Buspirone], the post-surgical apneustic breathing entry in data set [1] (one child) is recorded as “eliminate post-surgical apneustic breathing”. For the same compound, the “patients with reduced apnea index” value in data set [1] (patients with sleep apnea syndrome) is listed as 4 of 5. For the compound `Cc1cc(C)c(NC(=O)C[C@H](CC(=O)O)c2cccc3ccccc23)c(C(=O)N2CCC3(CCCC3)CC2)c1` [CR2945], the “SP apnea index, % of placebo value” in data set [2] (0.5 mg/kg i.p. in DMSO, rats) is 42%; in data set [2] (5.0 mg/kg i.p. in DMSO, rats), 31%. Besides, the “REM SP apnea index” value in data set [2] (all four doses 0.005, 0.05, 0.5, 5.0 mg/kg i.p., p<0.04 for each) was “significantly reduced”. The “frequency of spontaneous central apnea expression” value in data set [2] (all sleep stages, rats, systemic injection) was “significantly reduced”. The apnea duration entry in data set [2] (any dose 0.005-5.0 mg/kg i.p., p=0.7) is reported as “not affected”.

Turning to `Cc1cccc(NC(=O)N[C@@H]2N=C(c3ccccc3)c3ccccc3N(C)C2=O)c1` [L-365,260], the “efficacy against sleep apnea (rate of apneas per hour of NREM and REM sleep)” value in data set [2] (rats) was “dose-dependent efficacy”. Further, the “potency in blocking CCK-induced depolarization of nodose ganglion neurons” value in data set [3] is given as “less potent”. On to `COc1cc(N)c(Cl)cc1C(=O)N[C@H]1CN2CCC1CC2` [R-zacopride], for which the apnea frequency result in data set [4] was “reduce apnea frequency”. For the compound `CC(=O)Nc1nnc(S(N)(=O)=O)s1` [acetazolamide], in data set [1], the “effect in individuals with obstructive sleep apnea (OSAS)” value (“effect in individuals … (OSAS)” for short) was “increase in obstructive apneas” and the “effect in individuals with central apnea” value is recorded as “variable improvement”. For the compound `Nc1ncnc2c1ncn2[C@@H]1O[C@H](CO)[C@@H](O)[C@H]1O` [adenosine], in data set [5], the “reduction of apnea in an animal model of sleep apnea” value is recorded as “somewhat effective in reducing apnea”. As for `CN1C(=O)[C@@H](NC(=O)c2cc3ccccc3[nH]2)N=C(c2ccccc2)c2ccccc21` [devazepide], the “efficacy against sleep apnea (rate of apneas per hour of NREM and REM sleep)” value in data set [2] (rats) is recorded as “dose-dependent efficacy”. In addition, in data set [3], the “potency in blocking CCK-induced depolarization of nodose ganglion neurons” value is given as “highly potent”. Take `CCN1CC(CCN2CCOCC2)C(c2ccccc2)(c2ccccc2)C1=O` (centres unmarked) [doxapram]: in data set [1] (setting [6]), the “average arterial oxygen saturation” value is on record as “does not alter” and the length of apneas result was “decreasing the length of apneas”. On to `CCCCCN(CCCCC)C(=O)C(CCC(=O)O)NC(=O)c1ccc(Cl)c(Cl)c1` (centres unmarked) [lorglumide], for which the “efficacy against sleep apnea (rate of apneas per hour of NREM and REM sleep)” value in data set [2] (rats) was “dose-dependent efficacy”.

Consider `CN1CCN2c3ncccc3Cc3ccccc3C2C1` (centres unmarked) [mirtazapine], for which the “reduction of apnea frequency” value in data set [1] (one study of OSAS patients) is given as 50%. Besides, the apnea frequency result in data set [4] is listed as “reduce apnea frequency”. For the compound `C=CCN1CC[C@]23c4c5ccc(O)c4O[C@H]2C(=O)CC[C@@]3(O)[C@H]1C5` [naloxone], the “effect in individuals … (OSAS)” value in data set [1] is on record as “only slightly helpful”. In the case of `Cc1nccn1CC1CCc2c(c3ccccc3n2C)C1=O` (centres unmarked) [ondansetron], in data set [1], the “effect in individuals … (OSAS)” value is given as “failed to demonstrate any effect”. For the same compound, the apnea frequency entry in data set [4] is recorded as “reduce apnea frequency”.

In the case of `CNCCCC1c2ccccc2C=Cc2ccccc21` [protriptyline], in data set [1], the “effect in individuals … (OSAS)” value is “variable results”. In addition, in data set [1] (several small trials in individuals with OSAS), the side effects entry is “frequent and significant side effects”. Turning to `Cn1c(=O)c2[nH]cnc2n(C)c1=O` [theophylline], in data set [1], the “effect in individuals … (OSAS)” value is listed as “of no use” and the “effect in individuals with central apnea” value was “may benefit”. `CCCCCc1cc(O)c2c(c1)OC(C)(C)[C@@H]1CCC(C)=C[C@@H]21` [Δ9-tetrahydrocannibinol]: in data set [5], the “reduction of apnea in an animal model of sleep apnea” value is listed as “reduce sleep apneas”. For medroxyprogesterone, the “effect in individuals … (OSAS)” value in data set [1] is given as “no consistent benefit”.
